“Also recorded” adds a separate entry of the source.
Key:
[1] = tested on: female Aedes aegypti (Orlando strain, 1952); test: Minimum effective dosage testing, human skin (treated cloth patch); format: in vivo
Protocol: The test mosquitoes were female Aedes aegypti (Orlando strain, 1952) from the colony maintained at United States Department of Agriculture-Agricultural Research Service-Center for Medical, Agricultural and Veterinary Entomology (USDA-ARS-CMAVE) in Gainesville, Fla. Pupae were obtained from the colony and newly emerged mosquitoes were maintained on 10% sugar water and kept in laboratory cages at an ambient temperature of 28±1° C. and RH of 35-60%. Host seeking behavior was pre-selected in nulliparous female mosquitoes aged 6-10 days, indicated by flight upwind towards a potential host, from stock cages using a hand-draw box and trapped in a collection trap.
After 500 (±10%) females were collected in the trap, they were transferred to a test cage (approximately 59,000 cm^3 with dimensions 45×37.5×35 cm) and allowed to acclimatize for 17.5 (±2.5) min before testing was initiated. Just prior to the experiment, the pieces of treated cloth are removed from the vials and stapled onto card stock tabs (5×3 cm). Each piece of the cards and the assembly were hung on a drying rack using masking tape for 3-5 min. Participants in the study used latex gloves to pull a nylon stocking over their arm. A Velcro™-sealed vinyl sleeve was then placed over the forearm. […] The purpose of the nylon stocking was to produce a barrier between the dried cloth and the skin, thereby avoiding direct contact of chemical to skin. The dried cloth assembly was affixed over the opening in the sleeve and held in place with masking tape. Participants then inserted their arm with the sleeve and patch into a screened cage that contained female Ae. Aegypti mosquitoes. Tests were conducted on each control or treated patch for 1 min. A control patch (acetone solvent only, then dried) was tested prior to the start of experiments and evaluation of the same untreated control patch after every 10 tests. If 5 landings were not received on the control patch in 30 s, then tests were discontinued for 60 min. At the conclusion of testing the control patch was tested again. If five landings were not received within 30 s, the data for the replicate was discarded. When testing a patch treated with a candidate repellent, if approximately 1% or 5 mosquito bites were received during this one minute test, this compound was considered to have failed, i.e., was not repellent at that concentration. If a treated cloth patch received 0-4 bites within a minute, then it was considered as passed, i.e., repellent at that concentration of the test compound. The median concentration patch was tested in the first round and treated patches were then tested successively at higher or lower concentrations depending upon whether the previous patch failed or passed, respectively.
The time interval between each tested patch was <90 seconds until 10 successive tests had been conducted. If appreciable, mortality had occurred during testing, the number of knocked down mosquitoes are estimated and additional female mosquitoes are added to the cage to keep the available mosquitoes at approximately 500. The estimate of the MED was the lowest concentration that passed for each candidate. Observed MED values for each candidate compound were averaged across participants and reported as a mean MED±standard error.

Aedes aegypti = test: Human skin testing, biting deterrence (BioGents test cage, treated nylon sleeve); format: in vivo
Protocol: Female mosquitoes (Aedes aegypti) were reared according to the standard protocol at a temperature of 27.5±1° C., a relative humidity of 65-80% and a 12:12 hour photo period. The light period (450 Lux) was set from 7:00 to 19:00. After hatching from the eggs, larvae were kept in a water basin (30×30×10 cm) filled with a 1:1 mixture of tap- and deionized water with low oxygen content and fed with fish food flakes (Tetra Min®). Pupae were transferred to a cage (40×30×20 cm) provided with sugar solution (10% dextrose). Mosquitoes at an age of 5 to 10 days post-emergence were used for behavioral tests.
BioGents (BG) test cages are an in-house improvement of conventional test cages for the evaluation of mosquito repellents (Obermayr et al., “A Novel Test Cage with an Air Ventilation System as an Alternative to Conventional Cages for the Efficacy Testing of Mosquito Repellents,” J. Med. Entomol. 47:1116-22 (2010) which is hereby incorporated by reference in its entirety). The cages have a volume of 27.000 cm^3 (41×41×16 cm). Four sides of a cage are made of acrylic glass, the floor is made of metal sheet, and the rear side is covered by a gauze sleeve. The floor sheet is equipped with a test window (size: 56 cm^2; 14.8×3.8 cm) for the exposure of the treated skin. In between tests, BG cages are connected to a ventilation system that provides clean, warm, and humid air (26±1° C., 65±5% R.H.) to remove remaining host odours and repellent volatiles from the air inside the cage. In the presented study, the ventilation system was not applied as mosquitoes were only tested once and then discarded. Each treated sleeve was tested on a fresh batch of mosquitoes. Each cage was filled with populations of 30 mosquitoes, lured out of their rearing cages by a natural stimulus (human hand) to ensure that only host-seeking females are used for the repellent tests
All formulations have been stored at 4° C. Prior to testing, stock formulations were diluted v/v to final concentrations of 10% in 200 proof ethanol. […] For each test formulations, 2 pieces were prepared—one was treated, while the other one remained untreated and was worn between skin and treated nylon sleeve.
From each test formulation 5 ml were filled into 25 ml glass flasks; immediately afterwards stockings were folded into the flasks and pushed into the liquid formulation with a clean spatula. Flasks were sealed and incubated in the fridge overnight. On the consecutive day, one of the treated nylon pieces was removed from the flasks and left to dry on a clean paper towel for at least 10 minutes or until the ethanol had evaporated. The drying process was conducted at 27° C. and 65% to 80%. One untreated nylon sleeve was attached to the forearm followed by the treated sleeve.
Prior to a repellent efficacy test, the biting activity of the test mosquitoes was verified with the other, untreated forearm of a volunteer (wearing an untreated nylon sleeve). To keep biting pressure on the untreated skin low, a modified spacer covered with fine mosquito netting was used in control tests. Mosquitoes were still attracted to the skin odours and landed on the net, however they were not able to reach the skin and pierce it. A minimum of 10 landings had to be observed in 30 seconds during tests with Ae. aegypti. In case of lowered biting activities, 5 to 10 new mosquitoes were added to the cage or 30 new mosquitoes are used. […] The number of landing and biting mosquitoes was recorded. […]

[2] = treated cloth patch, 1 min test, high dose 1.5 mg/cm^2
[3] = nylon treated with 10% in ethanol, max 2 min exposure, one volunteer

## CC(C)=CCCC(C)CC(=O)OCC(C)O (stereo not drawn) [Compound 2144, 2-hydroxypropyl citronellate]
[1]
  Minimum effective dosage: 0.055 mg/cm²
[1]; average MED relative to DEET
  Proportion to DEET: 2.053
[1]; in vivo
  Minimum effective dosage testing, result in words: performed similarly to DEET
[1]; mean across subjects
  Minimum Effective Dosage, Average: 0.039 mg/cm^2
[1]; [2]
  Minimum Effective Dosage, Subject 1: 0.047 mg/cm^2
  Minimum Effective Dosage, Subject 2: 0.047 mg/cm^2
  Minimum Effective Dosage, Subject 3: 0.023 mg/cm^2
Aedes aegypti; nylon treated with 10%
  Observations: Repellent effects were clearly noticeable; also recorded: Visible repelient effects
Aedes aegypti; nylon treated with 10% in ethanol, bites per 120 sec
  Bites: 0/120 sec
Aedes aegypti; [3]
  Contacts: Landing (mosquitoes sits for >3 sec): 2
  Contacts: Short touch-down: 18
Aedes aegypti; nylon treated with 10%, versus untreated nylon
  bite reduction: (100% bite reduction)

From patent US11485701B2, “Insect repellent compounds and compositions, and methods thereof” (Iowa State University Research Foundation, Inc., priority 2016, dated 2022)
